The results in this text go back to ChEMBL document CHEMBL1201862, “PubChem BioAssay data set” (2004).

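Step 1: Grow cells in 96-well plates. Step 2: Expose to compound for 48 hours at 5 concentrations. Step 3: Interpolate endpoints linearly; if unreached, use highest concentration. GI50: concentration for 50% inhibition of growth.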 Calls of active or inactive are those of the source. Cut-off read from the data, not from the text of the source: active = GI50 up to about 1.1 µM and inactive = higher.

Test systems include HOP-62; OVCAR-3; UACC-62; PC-3; K562; DU-145; Hs-578T; SK-MEL-28; A549; HCT-116; M14; SR; MOLT-4; OVCAR-8; U-251; HL-60; NCI/ADR-RES; LOX IMVI; ACHN; SW-620.
What all share (assay): growth of human tumour cells (NCI), 48 h

`CCOC(=O)C(NC(=O)c1ccccc1)(Nc1ccc(S(=O)(=O)Nc2nc(C)cc(C)n2)cc1)C(F)(F)F` (stereo not given): the GI50 in the assay on HOP-62, in the assay with OVCAR-3, in the assay on UACC-62, in the assay on PC-3, in the assay on K562 and in the assay on DU-145 was > 100 µM (inactive) throughout. The GI50 in the assay with Hs-578T, in the assay with SK-MEL-28, in the assay with A549, with HCT-116, in the assay on M14 and with SR was > 100 µM (inactive) each time. For the same molecule, the GI50 in the assay on MOLT-4, with OVCAR-8, with U-251, in the assay on HL-60, in the assay on NCI/ADR-RES and in the assay with LOX IMVI was > 100 µM (inactive) in each case. Moreover, the GI50 with ACHN and in the assay on SW-620 was > 100 µM (inactive) each time.
On to `CO[C@H]1O[C@@H]2CO[C@@H](c3ccccc3)O[C@H]2[C@@H]2CC=CCC[C@]12O`, for which the GI50 with HOP-62 is > 100 µM (inactive); in the assay with OVCAR-3 it was 69.7 µM (inactive); with UACC-62 it was 63.4 µM (inactive); in the assay on PC-3, 40.9 µM (inactive); in the assay on K562 it was 33.9 µM (inactive); in the assay with DU-145, > 100 µM (inactive). Besides, the GI50 with Hs-578T was 0.052 µM (active); in the assay on SK-MEL-28, > 100 µM (inactive); in the assay on A549 it was 59.8 µM (inactive); in the assay with HCT-116, 30.1 µM (inactive); with M14 it was 72.6 µM (inactive); with SR, 30.8 µM (inactive). Moreover, the GI50 in the assay with MOLT-4 was 25.1 µM (inactive); in the assay on OVCAR-8, 73.1 µM (inactive); in the assay on U-251, 60.3 µM (inactive); with HL-60 it was 24.8 µM (inactive); in the assay with NCI/ADR-RES, 44.4 µM (inactive); with LOX IMVI, 74.3 µM (inactive). For the same molecule, the GI50 was 76.4 µM (inactive) in the assay on ACHN and 54.1 µM (inactive) with SW-620.
With `C/C(=C\CO)CC/C=C(\C)CNc1c(F)c(F)c(F)c(F)c1F`, the GI50 in the assay on HOP-62 is 24.7 µM (inactive); in the assay with OVCAR-3 it was 20.2 µM (inactive); in the assay with UACC-62, 17.2 µM (inactive); in the assay with PC-3, 21.1 µM (inactive); with K562 it was 33 µM (inactive); in the assay on DU-145, 43.6 µM (inactive). Moreover, the GI50 in the assay with Hs-578T was 33.7 µM (inactive); in the assay with SK-MEL-28 it was 20.5 µM (inactive); in the assay with A549 it was 28.7 µM (inactive); with HCT-116, 50.8 µM (inactive); in the assay on M14 it was 38.2 µM (inactive); in the assay on SR it was 28.3 µM (inactive). The GI50 with MOLT-4 was 29.6 µM (inactive); with OVCAR-8, 19.8 µM (inactive); in the assay on U-251 it was 24.3 µM (inactive); with HL-60, 28.7 µM (inactive); in the assay on NCI/ADR-RES, 30.8 µM (inactive); in the assay with LOX IMVI, 29.2 µM (inactive). In addition, the GI50 in the assay on ACHN is 43.2 µM (inactive); with SW-620, 33.2 µM (inactive).
On to `CCOC(=O)C(=O)/C(=C/NC(=S)c1ccncc1)C(=O)OCC`, for which the GI50 with HOP-62 is > 100 µM (inactive); with OVCAR-3, 0.0724 µM (active); in the assay on UACC-62, > 100 µM (inactive); in the assay with PC-3, > 100 µM (inactive); in the assay with K562 it was > 100 µM (inactive); in the assay on DU-145, > 100 µM (inactive). Also, the GI50 with Hs-578T, in the assay with SK-MEL-28, with A549, with HCT-116, in the assay on M14 and in the assay on SR was > 100 µM (inactive) each time. The GI50 with MOLT-4, in the assay on OVCAR-8, with U-251, with HL-60, with NCI/ADR-RES and in the assay on LOX IMVI was > 100 µM (inactive) throughout. Besides, the GI50 in the assay on ACHN and in the assay on SW-620 was > 100 µM (inactive) throughout.
As for `CC(NC(=O)/C(=C/c1ccccc1)NC(=O)c1ccccc1)C(=O)O` (stereo not given), the GI50 with HOP-62 is > 100 µM (inactive); in the assay on OVCAR-3, > 100 µM (inactive); with UACC-62 it was 57 µM (inactive); in the assay with PC-3, > 100 µM (inactive); in the assay on K562, > 100 µM (inactive); in the assay on DU-145, > 100 µM (inactive). Also, the GI50 with Hs-578T was 88.3 µM (inactive); in the assay with SK-MEL-28, > 100 µM (inactive); in the assay with A549, > 100 µM (inactive); with HCT-116, 91.2 µM (inactive); in the assay on M14, > 100 µM (inactive); with SR, 37.6 µM (inactive). For the same molecule, the GI50 in the assay on MOLT-4 is > 100 µM (inactive); with OVCAR-8 it was 50 µM (inactive); in the assay on U-251, 34 µM (inactive); with HL-60 it was 77.1 µM (inactive); in the assay on NCI/ADR-RES, 40.5 µM (inactive); in the assay with LOX IMVI, 25.2 µM (inactive). Besides, the GI50 is 38.6 µM (inactive) with ACHN and > 100 µM (inactive) in the assay on SW-620.
Take `O=C(O)[C@H]1[C@@H](C2CCCCC2)O[C@@H](C2CCCCC2)O[C@H]1C(F)(F)F`: the GI50 in the assay on HOP-62 was 24 µM (inactive); in the assay on OVCAR-3 it was 20.4 µM (inactive); with UACC-62, 18.5 µM (inactive); in the assay with PC-3, 17.6 µM (inactive); with K562, 33.1 µM (inactive); in the assay with DU-145, 41.8 µM (inactive). The GI50 is 23.1 µM (inactive) in the assay on Hs-578T; 19.4 µM (inactive) with SK-MEL-28; 20.9 µM (inactive) in the assay on A549; 28.8 µM (inactive) in the assay on HCT-116; 17.9 µM (inactive) in the assay on M14; 20.7 µM (inactive) with SR. The GI50 is 21.6 µM (inactive) in the assay with MOLT-4; 22 µM (inactive) in the assay with OVCAR-8; 18.8 µM (inactive) in the assay with U-251; 26.9 µM (inactive) in the assay on HL-60; 40.6 µM (inactive) in the assay with NCI/ADR-RES; 19.9 µM (inactive) in the assay on LOX IMVI. Further, the results for the GI50 in the assay on ACHN and with SW-620 were 18.7 µM (inactive) and 19.8 µM (inactive), respectively.
In the case of `OCCCSCCO`, the GI50 in the assay with HOP-62, with OVCAR-3, in the assay with UACC-62, in the assay with PC-3, in the assay with K562 and in the assay with DU-145 was > 100 µM (inactive) each time. For the same molecule, the GI50 with Hs-578T, in the assay on SK-MEL-28, in the assay with A549, with HCT-116, in the assay on M14 and with SR was > 100 µM (inactive) throughout. For the same molecule, the GI50 in the assay on MOLT-4, with OVCAR-8, in the assay on U-251, in the assay on HL-60, with NCI/ADR-RES and with LOX IMVI was > 100 µM (inactive) each time. Moreover, the GI50 in the assay on ACHN and with SW-620 was > 100 µM (inactive) each time.
Take `COC(=O)C1=C(O)C(C(=O)OC)[C@]2(O)[C@H](C(=O)OC)[C@H]1C[C@@H](c1c(Cl)cccc1Cl)[C@H]2C(=O)OC` (stereo not given in full): the GI50 in the assay with HOP-62 is 3.07 µM (inactive); in the assay on OVCAR-3, 2.77 µM (inactive); in the assay with UACC-62, 2.02 µM (inactive); in the assay with PC-3, 1.99 µM (inactive); in the assay on K562, 2.05 µM (inactive); with DU-145, 2.68 µM (inactive). Moreover, the GI50 in the assay with Hs-578T is 3.35 µM (inactive); with SK-MEL-28, 2.24 µM (inactive); with A549, 2.23 µM (inactive); in the assay with HCT-116 it was 1.97 µM (inactive); in the assay with M14 it was 1.55 µM (inactive); in the assay on SR, 1.82 µM (inactive). Further, the GI50 in the assay with MOLT-4 was 1.81 µM (inactive); in the assay with OVCAR-8 it was 1.79 µM (inactive); in the assay with U-251, 1.32 µM (inactive); with HL-60, 5.81 µM (inactive); with NCI/ADR-RES, 2.04 µM (inactive); in the assay with LOX IMVI, 1.87 µM (inactive). Further, the GI50 in the assay with ACHN is 2.19 µM (inactive); with SW-620, 2.55 µM (inactive).
As to `O=C(O)/C=C/C=C/c1ccc2c(c1)OCO2` [PIPERIC ACID], the GI50 in the assay on HOP-62, in the assay with OVCAR-3, with UACC-62, in the assay on PC-3, with K562 and in the assay with DU-145 was > 100 µM (inactive) throughout. Moreover, the GI50 is 82.6 µM (inactive) in the assay with Hs-578T; > 100 µM (inactive) in the assay on SK-MEL-28; > 100 µM (inactive) in the assay on A549; > 100 µM (inactive) in the assay with HCT-116; > 100 µM (inactive) in the assay on M14; > 100 µM (inactive) in the assay on SR. Further, the GI50 with MOLT-4, with OVCAR-8, in the assay with U-251, in the assay on HL-60, in the assay on NCI/ADR-RES and in the assay with LOX IMVI was > 100 µM (inactive) each time. The GI50 with ACHN and with SW-620 was > 100 µM (inactive) throughout.
As for `N=C(N)N/N=C/c1c(-c2ccc([N+](=O)[O-])cc2)nc2n1CCS2`, the GI50 in the assay on HOP-62 was 20.5 µM (inactive); in the assay on OVCAR-3, 14.8 µM (inactive); with UACC-62 it was 16.7 µM (inactive); with PC-3, 13.2 µM (inactive); in the assay with K562 it was 3.86 µM (inactive); with DU-145, 14.6 µM (inactive). Besides, the GI50 with Hs-578T is 16.7 µM (inactive); in the assay with SK-MEL-28, 17.3 µM (inactive); in the assay on A549, 17 µM (inactive); in the assay with HCT-116 it was 7.87 µM (inactive); in the assay with M14, 14.5 µM (inactive); in the assay on SR, 2.25 µM (inactive). In addition, the GI50 is 3.24 µM (inactive) with MOLT-4; 11 µM (inactive) in the assay on OVCAR-8; 2.3 µM (inactive) in the assay on U-251; 8.36 µM (inactive) with HL-60; > 72.4 µM (inactive) in the assay on NCI/ADR-RES; 8.26 µM (inactive) in the assay on LOX IMVI. In addition, the GI50 was 16.5 µM (inactive) in the assay on ACHN and 2.53 µM (inactive) with SW-620.
